Data taken from BindingDB's records for doi:10.1021/acs.jmedchem.5b00659 (Taipei Medical University, 2015).

Biological target: Signal transducer and activator of transcription 3 (Homo sapiens, UniProt P40763)
Assay: Inhibition of STAT3 tyrosine phosphorylation in human A549 cells by sandwich ELISA method

Chain of Signal transducer and activator of transcription 3 (P40763 whole entry): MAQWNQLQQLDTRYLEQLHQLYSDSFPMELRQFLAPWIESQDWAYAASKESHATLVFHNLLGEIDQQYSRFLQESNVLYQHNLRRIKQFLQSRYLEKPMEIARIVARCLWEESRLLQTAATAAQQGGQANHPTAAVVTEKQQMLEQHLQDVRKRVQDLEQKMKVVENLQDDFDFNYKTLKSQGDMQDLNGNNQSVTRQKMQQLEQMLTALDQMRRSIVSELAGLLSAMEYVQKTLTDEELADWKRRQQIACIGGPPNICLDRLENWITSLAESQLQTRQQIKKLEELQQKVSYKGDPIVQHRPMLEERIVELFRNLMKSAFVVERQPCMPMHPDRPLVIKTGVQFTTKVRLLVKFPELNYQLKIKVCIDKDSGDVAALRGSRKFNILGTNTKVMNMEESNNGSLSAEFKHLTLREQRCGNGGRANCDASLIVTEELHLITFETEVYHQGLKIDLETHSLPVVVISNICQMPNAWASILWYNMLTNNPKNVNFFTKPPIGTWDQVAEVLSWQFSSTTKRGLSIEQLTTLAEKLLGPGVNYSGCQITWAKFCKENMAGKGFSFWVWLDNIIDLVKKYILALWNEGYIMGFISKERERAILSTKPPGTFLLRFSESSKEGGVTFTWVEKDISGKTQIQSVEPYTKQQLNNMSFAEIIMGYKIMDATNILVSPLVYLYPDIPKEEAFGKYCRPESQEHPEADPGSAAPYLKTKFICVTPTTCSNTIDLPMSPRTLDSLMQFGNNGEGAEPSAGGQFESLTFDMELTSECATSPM

COc1ccc(S(=O)(=O)Nc2ccccc2-c2ccc(F)c(F)c2)cc1
IC50: 2750 nM
